Assay results from US9155792B2, “RecA inhibitors with antibiotic activity, compositions and methods of use” (Trustees of Boston University, priority 2006, dated 2015).

How the values were obtained:
E. coli RecA protein = biological target: T1, E. coli RecA protein (Escherichia coli, UniProt P0A7G6); assay: RecA ATPase luciferase assay; type: biochemical; conditions: compounds of FIGS. 2A and 2B
T1 construct: purchased New England Biolabs
Experimental: RecA is a DNA-dependent ATPase (i.e., it catalyzes the reaction adenosine triphosphate [ATP]→adenosine diphosphate [ADP]). An assay was developed for RecA ATPase activity based on detection of the amount of ATP remaining in a reaction mixture following incubation of RecA protein, DNA, and ATP. In the assay, E. coli RecA protein is incubated in reaction buffer with DNA, ATP, and any test compound or compounds for a measured amount of time. The quantity of ATP remaining after the RecA reaction is quantitated using a subsequent luciferase assay. The amount of ATP remaining can be compared to controls containing either a known inhibitor (full inhibition control) or no test compound (full activity control).
Kinase glo, Adenosine triphosphate, Adenosine 5′-O-(3-thiotriphosphate) plus and 384 well plates were obtained from Fisher, M13mp18 Single-stranded DNA, RecA protein, and T4 polynucleotide kinase reaction buffer (70 mM Tris-HCl pH7.5; 10 mM MgCl2; 5 mM DTT) were obtained from New England Biolabs.
Final reaction mixture contains: 0.5 μl of M13 single stranded DNA (250 μg/ml); 1.0 μl of 10×PHK buffer; 0.25 μl of RecA (2 mg/ml); 0.25 μl of 1 mM ATP; 0.25 μl of test compound in DMSO; and 12.0 μl of H2O.
Test compounds are incubated at room temperature in the presence of RecA protein and DNA prior to addition of ATP. This can be achieved by the preparation of two mixes, as indicated below. Desirably, both a no-DNA and a DNA/DMSO-only (i.e., no test compound) control were included.
The following steps are then performed: (1) Add 7.75 μl of mix 1 to the well of a 384 well plate; (2) Add 0.5 μl of the compound of interest; (3) Incubate at room temperature for 5 minutes; (4) Add 2.5 μl of the ATP mix. Incubate at room temperature for 30 minutes; (5) Add 12.5 μl of Promega Kinase glo plus; (6) Incubate at room temp for 10 minutes or more; and (7) Measure luminescence of the reaction.
Tested compounds were obtained from Boston University (1205 compounds from CMLD diversity library, available from Dr. Scott Schauss), IndoFine (66 compounds based on flavone structure), ChemdiV (48 compounds known to be ATPase inhibitors and 720 compounds structurally related to CB101 (described, for example, in U.S. Ser. No. 60/662,038), and Asinex. Five (5) tested compounds were bisflavones and 28 were predicted, based on structural modeling (see, for example, Example 20) to dock with Rec A. Many of the compounds are lipophilic, natural-product-like compounds. Others are flavones, bisflavones, flavonoids, coumarins, and/or heterocyclic compounds.
Percent inhibition is calculated according to the following equation:
[formula] A value of “−1” indicates higher than 50 μg/ml, therefore undetermined

S. aureus cells = assay: Mutation/resistance assay (resistance to ciprofloxacin); type: cell-based
Experimental: This assay measures the rate at which mutant cells arise in the presence of an antibiotic agent. Cells are grown in the presence of antibiotic agent at a concentration above (generally well above, e.g., 4× or 8×) its MIC, and further in the presence or absence of a test agent (that may inhibit or enhance mutation).
Every 24 hours, an aliquot is removed from the culture and is diluted so that the antibiotic agent is no longer present at a concentration above its MIC (e.g., so that the antibiotic agent is present at 0.5×MIC or less). These aliquoted samples are then assayed to determine whether they can grow in the presence of the antibiotic agent. Specifically, when growth is observed in the presence of antibiotic agent at a concentration that is 4×MIC, then resistance is said to have developed. Test compounds can therefore be assayed to assess whether or not they can reduce the incidence of resistance (e.g., by inhibiting mutation).
These aliquoted samples were then assayed to determine whether they can grow in the presence of ciprofloxacin. […]

[1] = tested on: S. aureus strain S3 (ISP 794); assay: Cell-based survival assay, S. aureus strain S3 (RecA+); conditions: 1 μg/ml ciprofloxacin + 25 μg/ml hinokiflavone, 16 hour time point

T1 sequence (P0A7G6 2-353): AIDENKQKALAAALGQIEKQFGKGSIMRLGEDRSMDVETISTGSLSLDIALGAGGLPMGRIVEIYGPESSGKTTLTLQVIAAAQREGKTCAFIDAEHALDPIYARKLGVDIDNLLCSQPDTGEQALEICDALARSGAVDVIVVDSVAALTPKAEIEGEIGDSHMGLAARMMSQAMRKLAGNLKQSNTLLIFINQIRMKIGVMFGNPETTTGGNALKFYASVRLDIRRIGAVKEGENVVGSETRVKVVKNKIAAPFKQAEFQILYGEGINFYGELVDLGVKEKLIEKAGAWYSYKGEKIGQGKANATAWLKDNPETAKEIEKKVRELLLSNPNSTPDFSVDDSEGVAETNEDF

SMILES: O=c1c(O)cc([C@H]2Oc3cc(O)cc(O)c3C[C@H]2O)cc2c([C@H]3Oc4cc(O)cc(O)c4C[C@H]3O)cc(O)c(O)c12 [theaflavin]
- activity in RecA ATPase screen (E. coli RecA protein): particularly active

SMILES: O=c1c(O)c(-c2ccc(O)c(O)c2)oc2cc(O)ccc12 [fisetin]
- activity in RecA ATPase screen (E. coli RecA protein): particularly active

SMILES: O=c1cc(-c2ccc(O)cc2)oc2cc(O[C@@H]3O[C@H](CO)[C@@H](O)[C@H](O)[C@H]3O)cc(O)c12 [apigenin-7-O-glucoside]
- activity in RecA ATPase screen (E. coli RecA protein): particularly active

SMILES: O=c1cc(-c2ccc(Oc3c(O)cc4oc(-c5ccc(O)cc5)cc(=O)c4c3O)cc2)oc2cc(O)cc(O)c12 [hinokiflavone]
- Number of Wells in which Growth Observed in Presence of Ciprofloxacin at 4 × MIC (S. aureus cells; culture grown 0 days in 4×MIC ciprofloxacin, +Hinokiflavone (25 μg/ml)): 0
- Number of Wells in which Growth Observed in Presence of Ciprofloxacin at 4 × MIC (S. aureus cells; culture grown 1 day in 4×MIC ciprofloxacin, +Hinokiflavone (25 μg/ml)): 0
- Number of Wells in which Growth Observed in Presence of Ciprofloxacin at 4 × MIC (S. aureus cells; culture grown 5 days in 4×MIC ciprofloxacin, +Hinokiflavone (25 μg/ml)): 0
- Number of Wells in which Growth Observed in Presence of Ciprofloxacin at 4 × MIC (S. aureus cells; culture grown 6 days in 4×MIC ciprofloxacin, +Hinokiflavone (25 μg/ml)): 0
- Number of Wells in which Growth Observed in Presence of Ciprofloxacin at 4 × MIC (S. aureus cells; culture grown 7 days in 4×MIC ciprofloxacin, +Hinokiflavone (25 μg/ml)): 3
- Number of Wells in which Growth Observed in Presence of Ciprofloxacin at 4 × MIC (S. aureus cells; culture grown 10 days in 4×MIC ciprofloxacin, +Hinokiflavone (25 μg/ml)): 4
- fewer CFUs in presence of hinokiflavone as compared with its absence [1]: approximately 100 fold

SMILES: O=C(O)c1cn(C2CC2)c2cc(N3CCNCC3)c(F)cc2c1=O [ciprofloxacin, reference compound]
- Number of Wells in which Growth Observed in Presence of Ciprofloxacin at 4 × MIC (S. aureus cells; culture grown 0 days in 4×MIC ciprofloxacin, −Hinokiflavone): 0
- Number of Wells in which Growth Observed in Presence of Ciprofloxacin at 4 × MIC (S. aureus cells; culture grown 1 day in 4×MIC ciprofloxacin, −Hinokiflavone): 1
- Number of Wells in which Growth Observed in Presence of Ciprofloxacin at 4 × MIC (S. aureus cells; culture grown 5 days in 4×MIC ciprofloxacin, −Hinokiflavone): 2
- Number of Wells in which Growth Observed in Presence of Ciprofloxacin at 4 × MIC (S. aureus cells; culture grown 6 days in 4×MIC ciprofloxacin, −Hinokiflavone): 2
- Number of Wells in which Growth Observed in Presence of Ciprofloxacin at 4 × MIC (S. aureus cells; culture grown 7 days in 4×MIC ciprofloxacin, −Hinokiflavone): 3
- Number of Wells in which Growth Observed in Presence of Ciprofloxacin at 4 × MIC (S. aureus cells; culture grown 10 days in 4×MIC ciprofloxacin, −Hinokiflavone): 11

SMILES: O=C(c1ccc(O)c(O)c1)c1c(O)cc(O)cc1O [maclurin]
- activity in RecA ATPase screen (E. coli RecA protein): particularly active

SMILES: O=c1cc(-c2ccc(O)cc2)oc2cc(O)cc(O)c12 [apigenin]
- activity in RecA ATPase screen (E. coli RecA protein): particularly active

SMILES: O=c1c(O)c(-c2ccc(O)cc2O)oc2cc(O)cc(O)c12 [morin]
- activity in RecA ATPase screen (E. coli RecA protein): particularly active

SMILES: O=c1c(O)c(-c2ccc(O)c(O)c2)oc2cc(O)c(O)c(O)c12 [quercetagetin]
- activity in RecA ATPase screen (E. coli RecA protein): particularly active

SMILES: O=c1cc(-c2ccc(O)cc2)oc2cc(O)c(O)c(O)c12 [6-hydroxy-apigenin]
- activity in RecA ATPase screen (E. coli RecA protein): particularly active

SMILES: COc1cc(-c2oc3cc(O)cc(O)c3c(=O)c2O)ccc1O [isorhamnetin]
- activity in RecA ATPase screen (E. coli RecA protein): particularly active

SMILES: O=c1c(O)c(-c2ccc(O)cc2)oc2cc(O)cc(O)c12 [kaempferol]
- activity in RecA ATPase screen (E. coli RecA protein): particularly active

SMILES: O=c1c(O)c(-c2ccc(O)cc2)oc2cc(O)ccc12 [3,7,4′-trihydroxyflavone]
- activity in RecA ATPase screen (E. coli RecA protein): particularly active

SMILES: O.O.O=c1c(O)c(-c2ccc(O)c(O)c2)oc2cc(O)cc(O)c12 [quercetin dihydrate]
- activity in RecA ATPase screen (E. coli RecA protein): particularly active
